Test results from patent US4150970A, “Growth regulator for plants” (Board of Trustees of Michigan State University, priority 1977, dated 1979).
“Also recorded” adds a separate entry of the source.

Legend:
Type in all cases: in vivo
[1] = tested on: Starbonnet rice seedlings; assay: Growth analysis of Starbonnet rice seedlings under different light intensities (Example VI); parameters: key to NAR: mg plant weight per cm^2 leaf area per day; RGR / LAR: unit not given here
Method: (§1) Rice seed cv. IR-8, or Starbonnet was surface treated with 0.1 percent mercuric chloride and planted in 77 cc plastic cups containing vermiculite and watered with one-fourth Hoagland's nutrient solution containing 3 mM of nitrogen at pH 5.0. After 10 days, seedlings were transplanted to 220 cc specimen cups wrapped in aluminum foil and containing 180 cc of the same Hoagland's nutrient solution. Four seedlings were suspended in the solution with a sponge rubber disc. The plants were grown under a 8 h night at 25° C. and a 16 h day at 30° C. with 21 and 8 μwatts per cm^2 in the blue and red spectra respectively. In the test with varying light intensity the high light intensity was 30 13 and the low intensity was 15 and 8 μwatts per cm^2 for the blue and red spectra respectively. The nutrient solution was renewed every 2 or 3 days. After one week the plants were sorted for size and similar sized plants assigned to the same block for the experiment. Prior to the initiation of a test the plants in each cup were assigned treatment numbers by use of a random number table. […] Sixteen hours prior to a test the foil wrapped cups were tared, and filled with one-half Hoaglands solution containing 6 mM nitrogen. Eighteen μl of chloroform or chloroform containing 1.8 μg triacontanol were placed on 2 cm^2 of Whatman No. 1 filter papers, air dried and placed in the specimen cups. This concentration of 10 μg triacontanol/liter was used for all tests described in the following Examples except where specifically indicated to the contrary. Immediately prior to the test the cups were all brought up to 180 ml. including a set of cups without plants to measure evaporation.
(§2) The plants were disected at harvest into shoots and roots. The expanded leaves were cut at the ligule and the newest leaf at the point it entered the sheath. The surface area of expanded leaves were measured using a Lambda Model LI-3000 planimeter. The plants were dried to constant weight in an oven at 100° C. and the roots, expanded leaves, and sheaths were weighed separately.
Growth analysis was conducted according to Evans (1972). The Net Assimulation Rate (NAR) is the increase in plant weight per unit of leaf area over time interval where: W=total weight per plant in mg, T=time in days, and L=leaf area in cm^2. [formula]
The relative growth rate (RGR) is the increase in plant weight per unit of original weight over a time interval and is obtained by: [formula]
The leaf area ratio is the ratio of leaf area to […] over a time interval. [formula]
This Example presents a growth analysis of `Starbonnet` rice seedlings treated with triacontanol under different light intensities, "Low" and "High" intensities are defined above, and in the Table VI these designations represent the light to which each plant was subjected.

[2] = tested on: Starbonnet rice seedlings; assay: Dry weight, leaf area and water uptake of rice under two light intensities (Example XVI)
Method: as §1
Water uptake was measured by weighing the cups after removal of the plants and subtracting the tare and the water evaporated. For tests continued for more than one day, the solution used was measured every 3 days and new Hoagland's added and the pH maintained at 5.0 with sulfuric acid.
as §2
Fourteen day old "Starbonnet" rice seedlings were prepared and treated with triacontanol as explained in Example IV above.
The increase in dry weight and leaf area and the water uptake of the rice seedlings treated with triacontanol under two different light intensities was determined. High light was 30 and 13 μwatts/cm^2 and low light 15 and 8 μwatts/cm^2 in the blue and red spectra respectively. The plants were exposed to these light conditions 36 hours prior to treatment. At zero time the plants under low light intensity weighed 26.0 mg with 4.41 cm^2 leaf area. The high light plants weighed 29.5 mg per plant with 4.01 cm^2 leaf area per plant. FIGS. 1, 2 and 3 of the accompanying drawings show the results of these tests. In each Figure, A=low light control; B=low light+triacontanol; C=high light control; and D=high light+triacontanol. Presented in tabular form, the data for FIGS. 1, 2 and 3 appears in Table XVI, as follows: […]

IR-8 rice seedlings [3] = assay: Total protein content of rice seedlings grown in the dark for six hours (Example VIII)
Method: as §1
Plants were placed in 20×32 cm glass jars fitted with gas inlet and outlet ports. Three jars containing 2 cups each were used for a total of 24 plants for each treatment. The plants were ventilated with air or freed of CO2 by passing it through ascarite and then humidified. The flow rate was approximately 300 ml/minute. […]
The total protein (nitrogen) content of 17 day old "IR-8" rice seedlings was determined, where […]

IR-8 rice seedlings [4] = assay: Dry weight and total protein of 18-day-old rice seedlings in light and dark for 24 hours (Examples X and XVII); settings: for Dry Wt, Entire Plant / Dry Wt, Expanded leaves / Dry Wt, Roots / Dry Wt, Sheaths: 24 hours
Method: as §1
Plants were placed in 20×32 cm glass jars fitted with gas inlet and outlet ports. Three jars containing 2 cups each were used for a total of 24 plants for each treatment. The plants were ventilated with air or freed of CO2 by passing it through ascarite and then humidified. The flow rate was approximately 300 ml/minute. Carbon dioxide-free air was also used to purge the appropriate jars during a two minute period required to place the plants in the jars. The N analyses were done by the automated micro-Kjelldahl procedure of Ferrari (1960).
Using the materials and procedures set forth above, dry weight and total protein (nitrogen) content of 18-day-old "IR-8" rice seedlings grown in light and dark for 24 hours with or without triacontanol was determined. Table X sets forth the results:
This example was run to determine the percent change in dry weight of whole 18-day-old "IR-8" rice seedlings treated with triacontanol in the light and dark over a 24 hour period expressed as percent change from zero time. The dry weight at zero time was 50.8 mg per seedling.

IR-8 rice seedlings [5] = assay: Percent change in dry weight of rice seedlings in the dark (Example XVIII); settings: 0.01 mg/l
Method: as §1
This example was run to determine the percent change in dry weight of whole 15-day-old "IR-8" rice seedlings treated with triacontanol in the dark as compared with a control. The dry weight at zero time was 37.3 mg per seedling. […]

## CCCCCCCCCCCCCCCCCCCCCCCCCCCCCCO [Triacontanol, 1-triacontanol]
[1]; high light, 0-4 hours
  LAR: 3.31
  NAR: 6.42
  RGR: 0.89
[1]; high light, 5-8 hours
  LAR: 3.45
  NAR: 3.96
  RGR: 0.57
[1]; high light, 9-16 hours
  LAR: 3.74
  NAR: 3.19
  RGR: 0.50
[1]; low light intensities
  dry weight accumulation per leaf area at low light versus control at high light: as much dry weight per cm^2 of leaf area at low light intensities as the control plants did at the higher light intensity; also recorded: as much dry weight per unit of leaf area at low light intensities as the control plants did at higher light intensities
[1]; low light, 0-4 hours
  LAR: 3.76
  NAR: 3.77
  RGR: 0.59
[1]; low light, 5-8 hours
  LAR: 3.90
  NAR: 4.14
  RGR: 0.67
[1]; low light, 9-16 hours
  LAR: 4.20
  NAR: 2.81
  RGR: 0.49
[2]; high light, 4 hr
  Dry Wt., Percent Increase from Zero Time: 16%
  Leaf Area, Percent Increase from Zero Time: 19%
  Water Uptake: 192 μl/cm^2 leaf area
[2]; high light, 8 hr
  Dry Wt., Percent Increase from Zero Time: 27%
  Leaf Area, Percent Increase from Zero Time: 38%
  Water Uptake: 351 μl/cm^2 leaf area
[2]; high light, 16 hr
  Dry Wt., Percent Increase from Zero Time: 51%
  Leaf Area, Percent Increase from Zero Time: 88%
  Water Uptake: 649 μl/cm^2 leaf area
[2]; low light conditions
  dry weight and leaf area gain under low light versus control under high light: gained as much dry weight and leaf area as the control plants did when subjected to high light conditions
[2]; low light, 4 hr
  Dry Wt., Percent Increase from Zero Time: 10%
  Leaf Area, Percent Increase from Zero Time: 7%
  Water Uptake: 117 μl/cm^2 leaf area
[2]; low light, 8 hr
  Dry Wt., Percent Increase from Zero Time: 23%
  Leaf Area, Percent Increase from Zero Time: 31%
  Water Uptake: 239 μl/cm^2 leaf area
[2]; low light, 16 hr
  Dry Wt., Percent Increase from Zero Time: 45%
  Leaf Area, Percent Increase from Zero Time: 64%
  Water Uptake: 453 μl/cm^2 leaf area
IR-8 rice seedlings [3]
  higher concentration of total protein in 4th leaf than the control: 11%
  total increase in protein per plant versus zero time: 18%
  total protein per (4th) leaf: doubling
IR-8 rice seedlings [4]; dark, 6- and 24-hour harvests
  dry weight in the dark versus dark controls: gained significantly more weight than the dark controls
IR-8 rice seedlings [4]; dark
  Dry Wt, Entire Plant: 55.0 mg/plant
  Dry Wt, Expanded leaves: 22.0 mg/plant
  Dry Wt, Roots: 20.3 mg/plant
  Dry Wt, Sheaths: 12.8 mg/plant
IR-8 rice seedlings [4]; light
  Dry Wt, Entire Plant: 72.9 mg/plant
  Dry Wt, Expanded leaves: 30.3 mg/plant
  Dry Wt, Roots: 24.6 mg/plant
  Dry Wt, Sheaths: 18.0 mg/plant
IR-8 rice seedlings [5]; 1 hour
  Dry Weight (percent change): 4%
IR-8 rice seedlings [5]; 3 hours
  Dry Weight (percent change): 6%
IR-8 rice seedlings [5]; 6 hours
  Dry Weight (percent change): 10%
